Series [1] addresses T1, 5-hydroxytryptamine receptor 1A (Rattus norvegicus, UniProt P19327).
T1 sequence (P19327 whole entry): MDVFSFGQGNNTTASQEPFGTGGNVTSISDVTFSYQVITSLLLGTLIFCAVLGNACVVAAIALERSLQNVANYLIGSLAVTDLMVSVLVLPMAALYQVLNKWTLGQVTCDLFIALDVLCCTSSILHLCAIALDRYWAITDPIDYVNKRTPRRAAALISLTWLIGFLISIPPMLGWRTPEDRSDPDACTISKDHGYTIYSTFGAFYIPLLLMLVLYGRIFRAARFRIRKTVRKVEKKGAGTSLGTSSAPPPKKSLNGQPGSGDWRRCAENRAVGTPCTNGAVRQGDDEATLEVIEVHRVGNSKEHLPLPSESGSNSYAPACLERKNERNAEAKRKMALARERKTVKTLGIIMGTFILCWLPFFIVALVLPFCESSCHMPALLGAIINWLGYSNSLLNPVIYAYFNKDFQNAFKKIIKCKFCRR
Kind of series: Binding affinity against 5-hydroxytryptamine 1A receptor from CHO-K1 cells, using [3H]8-OH-DPAT as the radioligand. Type of series: cell-based.

Series [2] addresses 5-hydroxytryptamine receptor 1B (Homo sapiens, UniProt P28222). Kind of series: Binding affinity against 5-hydroxytryptamine 1D receptor beta expressed in CHO-K1 cells, using [3H]5-HT as the radioligand. The class given is cell-based. The note with it: read-out: Ki.
The target in series [3] is 5-hydroxytryptamine receptor 1D (Homo sapiens, UniProt P28221). In words: Binding affinity against 5-hydroxytryptamine 1D receptor alpha expressed in CHO-K1 cells, using [3H]-5-HT as the radioligand. Type of series: cell-based. To be noted: read-out: Ki.
5-hydroxytryptamine receptor 1D, sequence (P28221 whole entry): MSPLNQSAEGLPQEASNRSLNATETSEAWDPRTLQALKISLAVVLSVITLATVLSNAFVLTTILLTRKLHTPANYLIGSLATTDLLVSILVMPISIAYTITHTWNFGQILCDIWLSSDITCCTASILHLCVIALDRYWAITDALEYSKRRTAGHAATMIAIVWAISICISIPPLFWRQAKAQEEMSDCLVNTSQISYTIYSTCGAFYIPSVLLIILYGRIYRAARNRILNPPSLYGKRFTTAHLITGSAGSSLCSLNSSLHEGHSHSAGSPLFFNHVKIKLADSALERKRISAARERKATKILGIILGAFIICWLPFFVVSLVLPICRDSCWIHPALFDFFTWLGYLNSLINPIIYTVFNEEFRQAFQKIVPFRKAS
The target in series [4] is T2, D(2) dopamine receptor (Rattus norvegicus, UniProt P61169). Kind of series: Binding affinity against Dopamine receptor D2 expressed in CHO-K1 cells, using [3H]U-86170 as the radioligand. Type of series: cell-based.
T2 sequence (P61169 whole entry): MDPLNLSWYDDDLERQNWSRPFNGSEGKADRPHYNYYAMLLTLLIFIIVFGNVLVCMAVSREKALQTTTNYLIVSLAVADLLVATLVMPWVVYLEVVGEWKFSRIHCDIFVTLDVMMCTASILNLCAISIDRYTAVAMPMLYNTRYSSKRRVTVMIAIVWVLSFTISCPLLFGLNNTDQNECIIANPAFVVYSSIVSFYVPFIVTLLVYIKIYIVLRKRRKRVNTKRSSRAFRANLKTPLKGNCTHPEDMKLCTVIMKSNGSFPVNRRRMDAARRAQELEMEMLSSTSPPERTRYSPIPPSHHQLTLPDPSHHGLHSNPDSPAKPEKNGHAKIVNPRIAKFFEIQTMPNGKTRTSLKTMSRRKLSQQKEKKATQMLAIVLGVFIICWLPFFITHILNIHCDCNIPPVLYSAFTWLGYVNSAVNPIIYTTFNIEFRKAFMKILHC
The target of series [5] is T3, D(3) dopamine receptor (Rattus norvegicus, UniProt P19020). Kind of series: The compound was tested in vitro for binding affinity against cloned mammalian Dopamine receptor D3 expressed in CHO cells by, using [3H]spiperone as radioligand. Type of series: cell-based.
T3 sequence (P19020 whole entry): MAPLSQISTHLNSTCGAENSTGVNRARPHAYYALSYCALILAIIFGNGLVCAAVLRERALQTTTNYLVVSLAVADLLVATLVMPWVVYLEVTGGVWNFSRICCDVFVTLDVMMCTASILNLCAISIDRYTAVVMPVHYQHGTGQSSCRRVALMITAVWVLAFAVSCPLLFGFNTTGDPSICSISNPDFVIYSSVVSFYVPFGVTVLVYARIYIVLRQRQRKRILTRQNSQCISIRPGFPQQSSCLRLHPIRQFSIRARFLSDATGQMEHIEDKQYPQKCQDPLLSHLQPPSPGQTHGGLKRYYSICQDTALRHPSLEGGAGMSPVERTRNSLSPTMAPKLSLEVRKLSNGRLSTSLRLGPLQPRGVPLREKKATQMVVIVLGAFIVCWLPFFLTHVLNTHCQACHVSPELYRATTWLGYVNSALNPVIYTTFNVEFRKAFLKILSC
Series [6] concerns Rattus norvegicus. Kind of series: The compound was tested in vivo for DOPA accumulation in hemispheres (cortex) against reserpine-pretreated rats; I= inactive at the highest dose tested (12.5). The class given is functional, organism-based.
The test system of series [7] is Rattus norvegicus. Kind of series: compound was tested in vivo for DOPA accumulation in corpus striatum against reserpine-pretreated rats; P=significant partial reduction only at the highest dose tested (12.5). The class given is functional, organism-based.
In series [8] the test system is Rattus norvegicus. Kind of series: compound was tested in vivo for 5-HTP accumulation in corpus striatum against reserpine-pretreated rats, activity expressed as ED50. The class given is functional.
For series [9], the system named is Rattus norvegicus. Kind of series: compound was tested in vivo for 5-HTP accumulation in hemispheres (cortex) against reserpine-pretreated rats(. The class given is functional.
For series [10], the system named is Rattus norvegicus. In words: compound was tested in vivo for 5-HTP accumulation in limbic system against reserpine-pretreated rats,. Type of series: functional.
The subject of series [11] is Rattus norvegicus. In words: Bioavailability in male Sprague-Dawley rats, after the iv administration at a dose of 1.0(pmol/g/h). The class given is ADME, organism-based. To be noted: in vivo.
Series [12] has as its system Rattus norvegicus. Kind of series: Bioavailability in male Sprague-Dawley rats, after the po administration at a dose of 20.0(pmol/g/h). The class given is ADME, organism-based. The note with it: in vivo.
Series [13] in a line: tmax in hours at a iv dose of 1.0(pmol/g/h). Type of series: ADME, organism-based. To be noted: in vivo.
Series [14] is described as follows: tmax in hours at a po dose of 20.0(pmol/g/h). Type of series: ADME, organism-based. The note with it: in vivo.
Series [15] has as its target T2, D(2) dopamine receptor. Kind of series: Binding affinity against Dopamine receptor D2 from CHO-K1 cells, using [3H]U-86,170 as the radioligand. Type of series: cell-based.
In series [16] the target is T3, D(3) dopamine receptor. In words: Binding affinity against Dopamine receptor D3 from CHO-K1 cells, using [3H]spiperone as the radioligand. The class given is cell-based. To be noted: read-out: Ki.
Series [17] deals with Rattus norvegicus. Kind of series: The compound was tested in vivo for DOPA accumulation in hemispheres (cortex) against reserpine-pretreated rats;I= inactive at the highest dose tested. Type of series: functional, organism-based.
For series [18], the system named is Rattus norvegicus. In words: The compound was tested in vivo for DOPA accumulation in limbic system against reserpine-pretreated rats;I= inactive at the highest dose tested. The class given is functional, organism-based.
The test system of series [19] is Rattus norvegicus. Kind of series: compound was tested in vivo for DOPA accumulation in corpus striatum against reserpine-pretreated rats; I=inactive at the highest dose tested. The class given is functional, organism-based.
The test system of series [20] is Rattus norvegicus. In words: Oral bioavailability in rat.
For series [21], the system named is Rattus norvegicus. In words: compound was tested in vivo for 5-HTP accumulation in corpus striatum against reserpine-pretreated rats, activity expressed as ED50; inactive at the highest dose tested. The class given is functional.
Series [22] concerns Rattus norvegicus. In words: compound was tested in vivo for 5-HTP accumulation in limbic system against reserpine-pretreated rats; inactive at the highest dose tested. The class given is functional.
The test system of series [23] is Rattus norvegicus. In words: compound was tested in vivo for 5-HTP accumulation in hemispheres (cortex) against reserpine-pretreated rats; inactive at the highest dose tested. The class given is functional.
For series [24], the target named is T3, D(3) dopamine receptor. In words: Compound was tested for binding affinity against Dopamine receptor D3 expressed in CHO-K1 cells, using [3H]spiperone as the radioligand.;I = inactive (less than 50% inhibition at 1 uM). Type of series: cell-based.
In series [25] the test system is Rattus norvegicus. Kind of series: compound was tested in vivo for 5-HTP accumulation in hemispheres (cortex) against reserpine-pretreated rats. Type of series: functional.
Series [26] deals with Rattus norvegicus. Kind of series: compound was tested in vivo for 5-HTP accumulation in limbic system against reserpine-pretreated rats. Type of series: functional.

Each structure is given as a SMILES string. Calls of active or inactive are those of the source. No cut-off for these calls is given here.

Here are results for 5 compounds from ChEMBL document CHEMBL1128401, “Structure-activity relationships in the 8-amino-6,7,8,9-tetrahydro-3H-benz[e]indole ring system. 1. Effects of substituents in the aromatic system on serotonin and dopamine receptor subtypes” (J Med Chem, 1995).

5-hydroxytryptamine receptor 1B, sequence (P28222 whole entry): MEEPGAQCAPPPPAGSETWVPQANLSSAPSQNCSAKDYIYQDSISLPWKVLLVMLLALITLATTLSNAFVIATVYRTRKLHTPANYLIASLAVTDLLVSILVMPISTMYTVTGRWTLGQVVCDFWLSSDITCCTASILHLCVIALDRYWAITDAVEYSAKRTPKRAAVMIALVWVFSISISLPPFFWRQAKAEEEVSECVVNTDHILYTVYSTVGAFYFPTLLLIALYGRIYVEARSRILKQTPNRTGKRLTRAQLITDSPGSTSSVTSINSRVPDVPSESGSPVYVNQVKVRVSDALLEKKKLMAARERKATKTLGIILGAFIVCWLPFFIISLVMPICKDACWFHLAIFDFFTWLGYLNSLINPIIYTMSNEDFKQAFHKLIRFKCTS

What is called Ki is the dissociation constant of the complex between target and ligand, obtained from inhibition or displacement. As usually defined, the ED50 is the dose that gives a 50% effect, or the effect in half of the subjects. Take `CCCN(CCC)C1CCc2cc(F)c3[nH]cc(C=O)c3c2C1` (configuration not stated): the Ki in [1] amounted to 0.5 nM; in series [2], 82 nM; in series [3], 4.6 nM; on D(2) dopamine receptor [4] it was 65 nM; on D(3) dopamine receptor [5], 65 nM. For the same compound, the ED50 entry in the series on Rattus norvegicus [6] was “inactive”. In addition, the 50% effective dose (ED50) result in the series on Rattus norvegicus [7] was “Weak activity”; with Rattus norvegicus [8], 0.042 µmol/kg; with Rattus norvegicus [9], 0.027 µmol/kg; with Rattus norvegicus [10], 0.079 µmol/kg.
As usually defined, the Tmax is the time at which the peak concentration occurs. For the compound `CCCN(CCC)C1CCc2cccc(O)c2C1` (configuration not stated) [8-OH-DPAT], the AUC in the series with Rattus norvegicus [11] stood at 213 pM ml-1; with Rattus norvegicus [12], 104 pM ml-1. The Tmax was 3 min in series [13] and 29 min in series [14]. Also, the inhibition constant (Ki) was 1130 nM at D(2) dopamine receptor [15] and 333 nM on D(3) dopamine receptor [16]. The ED50 result in the series on Rattus norvegicus [17], in the series with Rattus norvegicus [18] and in the series on Rattus norvegicus [19] was “inactive” throughout. This compound also had a F in the series with Rattus norvegicus [20] of 2.4%.
Turning to `CCCN(CCC)[C@H]1CCc2cc(F)c3[nH]cc(C=O)c3c2C1`, the inhibitory constant (Ki) in [1] came out at 0.8 nM; in series [2], 179 nM; in [3], 34 nM; on D(2) dopamine receptor [15], 199 nM; on D(3) dopamine receptor [16], 78 nM. Further, the ED50 entry in the series on Rattus norvegicus [17] is “inactive”. Further, the ED50 in the series on Rattus norvegicus [21] was determined as 0.17 µmol/kg; in the series with Rattus norvegicus [22], 0.23 µmol/kg; in the series with Rattus norvegicus [23] it was 0.32 µmol/kg.
In the case of `CCCN(CCC)C1CCc2ccc3[nH]cc(S(C)(=O)=O)c3c2C1` (configuration not stated), the inhibition constant Ki is 11 nM in series [1]; 373 nM in series [2]; 52 nM in [3]; 265 nM on D(2) dopamine receptor [4]; “Not Active” on D(3) dopamine receptor [24].
`CCCN(CCC)[C@@H]1CCc2cc(F)c3[nH]cc(C=O)c3c2C1`: the inhibition constant Ki in series [1] was determined as 0.3 nM; in series [3] it was 4.4 nM; on D(2) dopamine receptor [15], 48 nM; on D(3) dopamine receptor [16], 55 nM. Also, the ED50 result with Rattus norvegicus [17] is “inactive”. Besides, the 50% effective dose (ED50) came out at 0.083 µmol/kg with Rattus norvegicus [8], 0.084 µmol/kg with Rattus norvegicus [25] and 0.078 µmol/kg in the series with Rattus norvegicus [26].
